Experimental data reported in US5230899A, “Methods and compositions for making liposomes” (SmithKline Beecham Corporation, priority 1991, dated 1993).

Experiments:
[1] = Efficiency of encapsulation / entrapment of drugs in DPPC:oleic acid:Arg (1:1:1) liposomes; type: physicochemical; conditions: 10 mg/ml DPPC:oleic acid:Arg (1:1:1) liposomes
Experimental: A number of drugs were encapsulated with 10 mg/ml DPPC:oleic acid:[MUT]:1:1) liposomes to illustrate medicament encapsulation for use as a drug delivery system.

in vivo = conditions: rat, iv, 5 mg/kg
Experimental: The bioavailibility of indomethacin in a gel formulation was compared with that of a suspenison of indomethacin, both being compared with an IV dose. Rats were dosed with 5 mg/Kg of indomethacin. Oleic acid, arginine and phosphatide #5 (described above) in the a the ratio 1:1:1 was used to make the gel. […] Blood levels were measured 0-30 hours.

CNCC(O)c1ccc(OC(=O)C(C)(C)C)c(OC(=O)C(C)(C)C)c1 (stereo not drawn) [Dipivalyl Epinephrine]
% Entrapment ([1]; pH 7.1 PBS): 80%

CC(C(=O)O)c1ccc(-c2ccccc2)c(F)c1 (stereo not drawn) [Flurbiprofen]
% Entrapment ([1]; pH 7.8 PBS): 90%

COc1ccc2c(c1)c(CC(=O)O)c(C)n2C(=O)c1ccc(Cl)cc1 [indomethacin]
C0 (in vivo): 117 µg/mL
